# ChEMBL document CHEMBL1151840, “Synthetic oligoribonucleotides containing arabinonucleotides act as agonists of TLR7 and 8” (Bioorg Med Chem Lett, 2009)
# The source made the active and inactive calls. The calls are words filed in the database; no cut-off is given here.
# Columns and labels:
# [1] = tested on: PBMC; test: Stimulation of immune response in human PBMC assessed as induction of IL1-beta production at 150 ug/ml after 24 hrs; assay type: functional, cell-based
# [2] = Stability in human serum assessed as full-length compound remaining after 10 mins by anion-exchange HPLC; assay type: ADME, cell-free; conditions: read-out: Stability
# [3] = tested on: PBMC; test: Stimulation of immune response in human PBMC assessed as induction of TNFalpha production at 150 ug/ml after 24 hrs; assay type: functional, cell-based
# [4] = tested on: PBMC; test: Stimulation of immune response in human PBMC assessed as induction of IFNalpha production at 150 ug/ml after 24 hrs; assay type: functional, cell-based
# [5] = species on record: Homo sapiens; test: Stimulation of immune response in human pDC assessed as induction of MIP1alpha production at 150 ug/ml after 24 hrs; assay type: functional
# [6] = tested on: PBMC; test: Stimulation of immune response in human PBMC assessed as induction of IL10 production at 150 ug/ml after 24 hrs; assay type: functional, cell-based
# [7] = tested on: PBMC; test: Stimulation of immune response in human PBMC assessed as induction of IFN-gamma production at 150 ug/ml after 24 hrs; assay type: functional, cell-based
# [8] = tested on: PBMC; test: Stimulation of immune response in human PBMC assessed as induction of IL8 production at 150 ug/ml after 24 hrs; assay type: functional, cell-based
# [9] = tested on: Mus musculus; test: Stimulation of immune response in C57BL/6 mouse assessed as induction of serum IL12 production at 50 mg/kg, sc after 2 hrs by luminex multiplex assay; assay type: functional, organism-based; design: dose 50 mg/kg
# [10] = tested on: PBMC; test: Stimulation of immune response in human PBMC assessed as induction of MCP1 production at 150 ug/ml after 24 hrs; assay type: functional, cell-based
# [11] = species on record: Homo sapiens; test: Stimulation of immune response in human pDC assessed as induction of TNFalpha production at 150 ug/ml after 24 hrs; assay type: functional
# [12] = tested on: PBMC; test: Stimulation of immune response in human PBMC assessed as induction of IL2R level at 150 ug/ml after 24 hrs; assay type: functional, cell-based
# [13] = biological target: T1, Toll-like receptor 8 (Homo sapiens) (UniProt Q9NR97); test: Agonist activity at human TLR8 expressed in HEK293XL cells assessed as NF-kappaB activation after 18 hrs; assay type: functional, cell-based
# T1 sequence (whole entry): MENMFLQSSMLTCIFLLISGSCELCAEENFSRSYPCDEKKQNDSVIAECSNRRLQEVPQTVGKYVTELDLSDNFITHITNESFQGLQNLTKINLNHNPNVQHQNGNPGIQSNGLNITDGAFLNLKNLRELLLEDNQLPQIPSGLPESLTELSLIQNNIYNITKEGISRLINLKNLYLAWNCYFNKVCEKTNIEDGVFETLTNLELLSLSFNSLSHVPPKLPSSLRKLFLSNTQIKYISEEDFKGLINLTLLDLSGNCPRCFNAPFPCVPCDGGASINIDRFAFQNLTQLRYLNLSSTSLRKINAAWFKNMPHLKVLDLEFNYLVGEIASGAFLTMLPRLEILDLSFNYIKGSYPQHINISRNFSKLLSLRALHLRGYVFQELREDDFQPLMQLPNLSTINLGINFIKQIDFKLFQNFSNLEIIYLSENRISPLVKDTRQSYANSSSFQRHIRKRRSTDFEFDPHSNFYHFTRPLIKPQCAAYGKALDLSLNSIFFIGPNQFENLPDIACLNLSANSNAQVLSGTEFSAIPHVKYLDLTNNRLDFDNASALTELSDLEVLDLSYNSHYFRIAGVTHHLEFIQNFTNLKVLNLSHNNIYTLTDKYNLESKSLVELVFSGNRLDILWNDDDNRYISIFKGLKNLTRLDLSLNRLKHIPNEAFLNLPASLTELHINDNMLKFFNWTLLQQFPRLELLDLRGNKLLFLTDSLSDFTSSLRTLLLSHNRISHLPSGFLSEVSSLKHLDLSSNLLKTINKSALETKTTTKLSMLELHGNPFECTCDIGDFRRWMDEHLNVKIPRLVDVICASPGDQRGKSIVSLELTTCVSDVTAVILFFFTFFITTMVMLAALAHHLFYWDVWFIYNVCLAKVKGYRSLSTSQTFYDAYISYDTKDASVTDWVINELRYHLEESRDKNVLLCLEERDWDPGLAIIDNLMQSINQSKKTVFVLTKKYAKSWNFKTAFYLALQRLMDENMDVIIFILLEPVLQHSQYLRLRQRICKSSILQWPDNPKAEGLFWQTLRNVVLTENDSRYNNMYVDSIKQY
# [14] = species on record: Homo sapiens; test: Stimulation of immune response in human pDC assessed as induction of IL12 production at 150 ug/ml after 24 hrs; assay type: functional
# [15] = biological target: T2, Toll-like receptor 7 (Homo sapiens) (UniProt Q9NYK1); test: Agonist activity at human TLR7 expressed in HEK293XL cells assessed as NF-kappaB activation at 300 ug/ml after 18 hrs; assay type: functional, cell-based
# T2 sequence (whole entry): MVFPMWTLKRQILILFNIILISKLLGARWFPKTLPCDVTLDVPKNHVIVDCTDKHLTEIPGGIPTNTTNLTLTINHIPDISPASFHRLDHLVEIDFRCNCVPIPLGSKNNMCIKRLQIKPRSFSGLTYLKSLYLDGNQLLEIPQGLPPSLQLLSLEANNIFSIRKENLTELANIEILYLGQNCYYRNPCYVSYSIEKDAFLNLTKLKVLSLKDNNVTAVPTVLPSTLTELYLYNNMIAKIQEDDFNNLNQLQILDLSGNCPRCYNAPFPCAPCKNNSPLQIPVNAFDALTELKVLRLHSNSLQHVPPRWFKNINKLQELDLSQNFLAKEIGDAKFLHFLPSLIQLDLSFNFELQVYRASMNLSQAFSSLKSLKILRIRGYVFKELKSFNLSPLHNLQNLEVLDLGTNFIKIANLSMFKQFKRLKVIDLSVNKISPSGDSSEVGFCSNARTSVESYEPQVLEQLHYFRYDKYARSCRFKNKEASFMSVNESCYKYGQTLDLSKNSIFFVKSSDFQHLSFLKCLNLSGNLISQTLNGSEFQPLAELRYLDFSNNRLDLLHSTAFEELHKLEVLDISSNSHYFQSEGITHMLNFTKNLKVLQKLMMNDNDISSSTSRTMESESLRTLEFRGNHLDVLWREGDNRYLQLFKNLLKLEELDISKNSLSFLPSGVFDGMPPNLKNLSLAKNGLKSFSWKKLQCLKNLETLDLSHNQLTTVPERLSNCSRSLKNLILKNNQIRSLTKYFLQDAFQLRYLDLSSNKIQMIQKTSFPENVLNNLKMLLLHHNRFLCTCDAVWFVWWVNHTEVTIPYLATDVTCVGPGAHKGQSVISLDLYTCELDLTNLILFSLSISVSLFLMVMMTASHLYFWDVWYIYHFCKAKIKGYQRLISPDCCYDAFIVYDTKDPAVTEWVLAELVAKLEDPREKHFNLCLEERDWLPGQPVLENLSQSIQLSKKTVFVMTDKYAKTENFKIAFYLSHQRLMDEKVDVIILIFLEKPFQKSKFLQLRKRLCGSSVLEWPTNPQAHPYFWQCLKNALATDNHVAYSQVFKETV
# [16] = species on record: Homo sapiens; test: Stimulation of immune response in human pDC assessed as induction of IFN-gamma production at 150 ug/ml after 24 hrs; assay type: functional
# [17] = tested on: PBMC; test: Stimulation of immune response in human PBMC assessed as induction of IL12 production at 150 ug/ml after 24 hrs; assay type: functional, cell-based
# [18] = tested on: PBMC; test: Stimulation of immune response in human PBMC assessed as induction of MIP1alpha production at 150 ug/ml after 24 hrs; assay type: functional, cell-based
# [19] = tested on: PBMC; test: Stimulation of immune response in human PBMC assessed as induction of RANTES production at 150 ug/ml after 24 hrs; assay type: functional, cell-based
# [20] = species on record: Homo sapiens; test: Stimulation of immune response in human pDC assessed as induction of MIP1beta production at 150 ug/ml after 24 hrs; assay type: functional
# [21] = tested on: PBMC; test: Stimulation of immune response in human PBMC assessed as induction of MIP1beta production at 150 ug/ml after 24 hrs; assay type: functional, cell-based
# [22] = species on record: Homo sapiens; test: Stimulation of immune response in human pDC assessed as induction of IFNalpha production at 150 ug/ml after 24 hrs; assay type: functional
structure (smiles),measurement,setting,value
Nc1ccn([C@@H]2O[C@H](COP(=O)(S)O[C@H]3[C@@H](O)[C@H](n4ccc(=O)[nH]c4=O)O[C@@H]3COP(=O)(S)O[C@H]3[C@@H](O)[C@H](n4ccc(=O)[nH]c4=O)O[C@@H]3COP(=O)(S)O[C@H]3[C@H](O)[C@H](n4cnc5c(=O)[nH]c(N)nc54)O[C@@H]3COP(=O)(S)O[C@H]3[C@@H](O)[C@H](n4ccc(=O)[nH]c4=O)O[C@@H]3COP(=O)(S)O[C@H]3[C@H](O)[C@H](n4cnc5c(=O)[nH]c(N)nc54)O[C@@H]3COP(=O)(S)OCC(O)COP(=O)(S)O[C@H]3[C@H](O)[C@H](n4cnc5c(=O)[nH]c(N)nc54)O[C@@H]3COP(=O)(S)O[C@H]3[C@@H](O)[C@H](n4ccc(=O)[nH]c4=O)O[C@@H]3COP(=O)(S)O[C@H]3[C@H](O)[C@H](n4cnc5c(=O)[nH]c(N)nc54)O[C@@H]3COP(=O)(S)O[C@H]3[C@@H](O)[C@H](n4ccc(=O)[nH]c4=O)O[C@@H]3COP(=O)(S)O[C@H]3[C@@H](O)[C@H](n4ccc(=O)[nH]c4=O)O[C@@H]3COP(=O)(S)O[C@H]3[C@@H](O)[C@H](n4ccc(N)nc4=O)O[C@@H]3COP(=O)(S)O[C@H]3[C@H](O)[C@H](n4cnc5c(=O)[nH]c(N)nc54)O[C@@H]3COP(=O)(S)O[C@H]3[C@@H](O)[C@H](n4ccc(=O)[nH]c4=O)O[C@@H]3COP(=O)(S)O[C@H]3[C@@H](O)[C@H](n4ccc(N)nc4=O)O[C@@H]3COP(=O)(S)O[C@H]3[C@H](O)[C@H](n4cnc5c(=O)[nH]c(N)nc54)O[C@@H]3COP(=O)(S)O[C@H]3[C@@H](O)[C@H](n4ccc(=O)[nH]c4=O)O[C@@H]3CO)[C@@H](OP(=O)(S)OC[C@H]3O[C@@H](n4cnc5c(=O)[nH]c(N)nc54)[C@@H](O)[C@@H]3OP(=O)(S)OC[C@H]3O[C@@H](n4ccc(=O)[nH]c4=O)[C@H](O)[C@@H]3OP(=O)(S)OC[C@H]3O[C@@H](n4ccc(N)nc4=O)[C@H](O)[C@@H]3OP(=O)(S)OC[C@H]3O[C@@H](n4cnc5c(=O)[nH]c(N)nc54)[C@@H](O)[C@@H]3OP(=O)(S)OC[C@H]3O[C@@H](n4ccc(=O)[nH]c4=O)[C@H](O)[C@@H]3OP(=O)(O)S)[C@H]2O)c(=O)n1 (some centres not stated),Activity,[1],Active
same,remaining at 10 min,[2],76%
same,Activity,[3],Active
same,Activity,[4],Active
same,Activity,[5],Active
same,Activity,[6],Active
same,Activity,[7],Active
same,Activity,[8],Active
same,Activity,[9],inactive
same,Activity,[10],Active
same,Activity,[11],Active
same,Activity,[12],Active
same,Activity,[13],Dose-dependent effect
same,Activity,[14],Active
same,Activity,[15],inactive
same,Activity,[16],Active
same,Activity,[17],Active
same,Activity,[18],Active
same,Activity,[19],Active
same,Activity,[20],Active
same,Activity,[21],Active
same,Activity,[22],inactive
